This is an account of results in patent US10591478B2, “Methods for molecular classification of fatty liver by high-throughput protein post-translational modifications” (ROSEMAN UNIVERSITY OF HEALTH SCIENCES, priority 2015, dated 2020).

Entries after “also recorded” stand apart in the source; their conditions may differ.

The test system of one series is FOXO1. Nature of the series: cIEF immunoassay of FOXO1 pI distribution in HepG2 cells. It counts as cell-based. The settings on record: 48 hours. How it is done: A NanoPro 1000 cIEF system (Protein Simple, Santa Clara, Calif., USA) was employed for profiling protein PTM. Samples of 400 nl volume were separated by isoelectric focusing using the 96-capillary system, followed by immobilization of the proteins onto the inner capillary walls. Primary and secondary antibodies (Tables 2 and FIG. 6) were introduced into the capillaries, followed by chemiluminescence detection reagents. The incubation times were 110 and 55 min for primary and secondary antibodies, respectively. The separation time was 50 minutes at […]. All samples were loaded in triplicate into capillaries to evaluate the consistency of capillary-to-capillary measurement. Each experiment was performed in triplicate to ensure repeatability. A minimum of nine cIEF measurements were done for each protein per animal group. […]
HepG2 cells were maintained in DMEM media with 25 mM glucose and 10% fetal calf serum. […] Total HepG2 cell extracts were collected and evaluated with 1D Western blots using antibodies against O-GlcNAc.
HepG2 cells were transiently transfected with an expression vector that expressed FOXO1 with a Myc-DDK tag (Cat. No. RC200477, Origene, Rockville, Md.). […] HepG2 cells were treated for 48 hours with 500 μM glucosamine Total HepG2 cell extracts were collected and evaluated with 1D and 2D Western blots using antibodies against FLAG tag. […]

The next series deals with HepG2 cells. Kind of series: 1D Western blot of HepG2 total cell extracts with antibodies against O-GlcNAc. It counts as cell-based. The settings on record: HepG2, 100 μM PUGNAc, 48 hours. The protocol:
HepG2 cells were maintained in DMEM media with 25 mM glucose and 10% fetal calf serum. HepG2 cells were treated for 48 hours with 100 μM PUGNAc (Cat. No. A7229, Sigma, St. Louis, Mo.). Total HepG2 cell extracts were collected and evaluated with 1D Western blots using antibodies against O-GlcNAc.
HepG2 cells were first lysed with M-Per lysis buffer (Pierce, Rockford, Ill., USA) in the presence of protease and phosphatase inhibitors. For cIEF immunoassays, total cell lysates were prepared in Premix G2 pH 5-8 separation gradient containing pI standards (ProteinSimple).
HepG2 total cell extracts were analyzed on 10% SDS-polyacrylamide gel. Secondary antibodies were purchased from LI-COR (Lincoln, Nebr., Cat. No. 92668070). Immunoblots were detected with the LI-COR's Odyssey CLx imaging system.

A further series concerns HMGCS2. Kind of series: cIEF immunoassay PTM profile of HMGCS2 in liver tissues. It counts as in vivo, mouse. The settings on record: C57BL/6J+F liver vs C57BL/6J. How it is done: (§1) C57BL/6 J and UPase1-TG mice were fed a lean diet that provides 4.6 kcal/g (22% by calorific value from fat, 23% from protein, and 55% from carbohydrates; PicoLab Mouse Diet, Catalog No 5058, LabDiet, Brentwood, Mo., USA). C57BL/6 J+LD mice were fed a lean diet for 16 weeks. C57BL/6 J+F mice were fed a lean diet supplemented with fenofibrate (400 mg/kg per day) for 5 days. C57BL/6 J+HFD mice were fed a high-fat diet that provides 5.24 kcal/g (60% from fat, 20% from protein, and 20% from carbohydrates) for 16 weeks (Catalog No D12492, Research Diets Inc, New Brunswick, N.J., USA). C57BL/6 J mice served as a control for C57BL/6 J+LD, UPase1-TG, and C57BL/6 J+F mice. On the other hand, C57BL/6 J+LD mice served as a control for C57BL/6 J+HFD mice. All animal studies were performed in conformity with the Public Health Service Policy on Humane Care and Use of Laboratory Animals and with the approval of the Animal Care and Use Committees at Nevada Cancer Institute, Desert Research Institute, and Touro University Nevada.
(§2) Approximately 500 mg of frozen liver tissues was added to 300 μl of RIPA buffer (Cat. No. 8990, Life Technologies, Grand Island, N.Y. 14702) containing proteinase and phosphatase inhibitors and homogenized twice at 6 seconds duration. […]

The subject of the next series is PFK1. Kind of series: cIEF immunoassay PTM profile of PFK1 in liver tissues. It counts as in vivo, mouse. The settings on record: C57BL/6J+F liver vs control C57BL/6J. The protocol: as §1, §2
Another series has as its system ERK1/2. Nature of the series: cIEF immunoassay phosphorylation profile of ERK1/2 in liver tissues. The settings on record: C57BL/6J+F liver vs control C57BL/6J. It counts as in vivo, mouse. The protocol: as §1, §2
For a further series, the system named is LCAT. Kind of series: cIEF immunoassay PTM profile of LCAT in liver tissues. It counts as in vivo, mouse. The protocol: as §1, §2
Another series concerns LCAD. Kind of series: cIEF immunoassay PTM profile of LCAD in liver tissues. The settings on record: C57BL/6J+F liver vs control C57BL/6J. It counts as in vivo, mouse. How it is done: as §1, §2
In series [1] the test system is liver tissues (hepatic steatosis). Kind of series: Assessment of hepatic steatosis with CARS microscopy and Oil Red O histology. It counts as in vivo, mouse. The settings on record: C57BL/6J+F mice, fenofibrate diet (400 mg/kg per day) for 5 days. The protocol:
as §1

A further series deals with ChREBP. Kind of series: cIEF immunoassay PTM profile of ChREBP in liver tissues. It counts as in vivo, mouse. The settings on record: C57BL/6J+F liver vs control C57BL/6J. How it is done:
as §1, §2

Another series has as its system Akt. Nature of the series: cIEF immunoassay phosphorylation profile of Akt in liver tissues. It counts as in vivo, mouse. The settings on record: C57BL/6J+F liver vs C57BL/6J. How it is done: as §1, §2
The subject of the next series is FLAG-tagged FOXO1. Nature of the series: 2D Western blot of FLAG-tagged FOXO1 in HepG2 cells. It counts as cell-based. The settings on record: HepG2 transfected with FLAG-tagged FOXO1, 500 μM glucosamine, 48 hours. The protocol:
HepG2 cells were transiently transfected with an expression vector that expressed FOXO1 with a Myc-DDK tag (Cat. No. RC200477, Origene, Rockville, Md.). Transfection reagent was purchased from Life Technologies (Lipofectamine 2000, Cat. No. 11668-019, Grand Island, N.Y. 14702). HepG2 cells were treated for 48 hours with 500 μM glucosamine Total HepG2 cell extracts were collected and evaluated with 1D and 2D Western blots using antibodies against FLAG tag.
2D Western blots of HepG2 total protein extracts were performed by Kendrick Laboratories (Madison, Wis.). Total protein extracts was diluted with 100 ul of SDS Boiling Buffer and microdialyzed overnight using 6-8,000 MWCO membrane at 4° C. Samples were then lyophilized and redissolved to 3.33 mg/ml in diluted SDS boiling Buffer:Urea Sample Buffer before loading. A total of 500 μg of total protein extracts or 150 μl was loaded for isoeletric focusing. Carrier ampholine method of isoelectric focusing was carried out in a glass tube of inner diameter 3.3 mm using 2.0% pH 4-8 mix Servalytes (Serva, Heidelberg, Germany) for 20,000 volt-hrs. After equilibration for 10 minutes in 10% glycerol, 50 mM dithiothreitol, 2.3% SDS and 0.0625 M tris, pH 6.8, each tube gel was sealed to the top of a stacking gel that overlaid a 10% acrylamide slab gel. SDS slab gel electrophoresis was carried out for about 5 hours at 25 mA/gel. […]
For orientation: In western blotting, separated proteins are transferred to a membrane and probed.

Regarding `CC(=O)N[C@H]1/C(=N/OC(=O)Nc2ccccc2)O[C@H](CO)[C@@H](O)[C@@H]1O` [PUGNAc], the “new FOXO1 peak, pI” value with FOXO1 (HepG2, 100 μM PUGNAc) came to 8.25 pI. Moreover, the “overall protein O-linked glycosylation profile of HepG2 total cell extract” value in the series on HepG2 cells is “increased”.

On to `CC(C)OC(=O)C(C)(C)Oc1ccc(C(=O)c2ccc(Cl)cc2)cc1` [fenofibrate], for which the “PTM increase for HMGCS2, areas under the curve from pI 5.7 to 6.4” value in the series with HMGCS2 is listed as 2 folds. The “reduction of phosphorylated PFK-1 isoform, areas under the curve” value in the series on PFK1 is around 10 folds. The “increase of ERK1/2 phosphorylated isoforms, areas under the curve” value with ERK1/2 is on record as around 30%. The “LCAT observed pI value” with LCAT (C57BL/6J+F liver) worked out at 5.8 pI. Moreover, in the series on LCAT (C57BL/6J+F liver vs C57BL/6J), the “glycosylated LCAT isoforms, folds lower” value was around 10 folds. In addition, the “glycosylated LCAD isoform, folds higher, areas under the curve” value in the series on LCAD is reported as 2 folds. Further, the Fatty liver classification result in [1] is given as “severe microvesicular steatosis”. The “reduction of phosphorylated ChREBP isoforms” value with ChREBP turned out to be 60%. Besides, in the series with Akt, the “Akt phosphorylation level, lower compared to control” value was “approximately 30%”.

In the case of `N[C@H]1C(O)O[C@H](CO)[C@@H](O)[C@@H]1O` (stereo partly shown) [glucosamine], the “FLAG-tagged FOXO1 pI on 2D Western blot” value in the series on FLAG-tagged FOXO1 is “shift to FLAG-tagged FOXO1 toward basic pI values; also recorded: additional gel spot at a basic pI value”. Moreover, the “FOXO1 peaks in cIEF, pI” value in the series with FOXO1 (HepG2, 500 μM glucosamine) was above 7.5 pI.
